Experiment [1] deals with T1, HBV core protein (C-terminal truncated, 149 aa assembly domain) (Hepatitis B virus genotype D subtype adw, UniProt P03147, C107A/C48A/C61A).
T1 construct: The C-terminal truncated core protein containing 149 amino acids of the N-terminal assembly domain; made in house; host or cells: E. coli BL21 (DE3) Rosetta2, plasmid pET21b
Put plainly: Biochemical capsid assembly assay (fluorescence quenching). Particulars: BODIPY-FL labelled core protein, assembly started with NaCl, read after 6 min; read-out: Assembly Activity. As to the method: Biochemical Capsid Assembly Assay
The screening for assembly effector activity was done based on a fluorescence quenching assay published by Zlotnick et al. (2007). The C-terminal truncated core protein containing 149 amino acids of the N-terminal assembly domain fused to a unique cysteine residue at position 150 and was expressed in E. coli using the pET expression system (Merck Chemicals, Darmstadt). Purification of core dimer protein was performed using a sequence of size exclusion chromatography steps. In brief, the cell pellet from 1 L BL21 (DE3) Rosetta2 culture expressing the coding sequence of core protein cloned NdeI/XhoI into expression plasmid pET21b was treated for 1 h on ice with a native lysis buffer (Qproteome Bacterial Protein Prep Kit; Qiagen, Hilden). After a centrifugation step the supernatant was precipitated during 2 h stirring on ice with 0.23 g/ml of solid ammonium sulfate. Following further centrifugation the resulting pellet was resolved in buffer A (100 mM Tris, pH 7.5; 100 mM NaCl; 2 mM DTT) and was subsequently loaded onto a buffer A equilibrated CaptoCore 700 column (GE HealthCare, Frankfurt). The column flow through containing the assembled HBV capsid was dialyzed against buffer N (50 mM NaHCO3 pH 9.6; 5 mM DTT) before urea was added to a final concentration of 3M to dissociate the capsid into core dimers for 1.5 h on ice. The protein solution was then loaded onto a 1 L Sephacryl 5300 column. After elution with buffer N core dimer containing fractions were identified by SDS-PAGE and subsequently pooled and dialyzed against 50 mM HEPES pH 7.5; 5 mM DTT. To improve the assembly capacity of the purified core dimers a second round of assembly and disassembly starting with the addition of 5 M NaCl and including the size exclusion chromatography steps described above was performed. From the last chromatography step core dimer containing fractions were pooled and stored in aliquots at concentrations between 1.5 to 2.0 mg/ml at −80° C.
Immediately before labelling the core protein was reduced by adding freshly prepared DTT in a final concentration of 20 mM. After […] on ice storage buffer and DTT was removed using a Sephadex G-25 column (GE HealthCare, Frankfurt) and 50 mM HEPES, pH 7.5. For labelling 1.6 mg/ml core protein was incubated at 4° C. and darkness overnight with BODIPY-FL maleimide (Invitrogen, Karlsruhe) in a final concentration of 1 mM. After labelling the free dye was removed by an additional desalting step using a Sephadex G-25 column. Labelled core dimers were stored in aliquots at 4° C. In the dimeric state the fluorescence signal of the labelled core protein is high and is quenched during the assembly of the core dimers to high molecular capsid structures. The screening assay was performed in black 384 well microtiter plates in a total assay volume of 10 μl using 50 mM HEPES pH 7.5 and 1.0 to 2.0 μM labelled core protein. Each screening compound was added in 8 different concentrations using a 0.5 log-unit serial dilution starting at a final concentration of 100 μM, 31.6 μM or 10 μM, In any case the DMSO concentration over the entire microtiter plate was 0.5%. The assembly reaction was started by the injection of NaCl to a final concentration of […] which induces the assembly process to approximately 25% of the maximal quenched signal. 6 min after starting the reaction the fluorescence signal was measured using a Clariostar plate reader (BMG Labtech, Ortenberg) with an excitation of 477 nm and an emission of 525 nm. As 100% and 0% assembly control HEPES buffer containing 2.5 M and 0 M NaCl was used. Experiments were performed thrice in triplicates. EC50 values were calculated by non-linear regression analysis using the Graph Pad Prism 6 software (GraphPad Software, La Jolla, USA).

Experiment [2] relates to HBV. Put plainly: HBV replication assay: HBV DNA from the supernatants of HepAD38 cells. The format is cell-based. Particulars: Hepatitis B virus, 144 h, HBV DNA in supernatant by qPCR at day 6, read-out: Cell Activity. As to the method: Determination of HBV DNA from the Supernatants of HepAD38 Cells
The anti-HBV activity was analysed in the stable transfected cell line HepAD38, which has been described to secrete high levels of HBV virion particles (Ladner et al., 1997). In brief, HepAD38 cells were cultured at 37° C. at 5% CO2 and 95% humidity in 200 μl maintenance medium, which was Dulbecco's modified Eagle's medium/Nutrient Mixture F-12 (Gibco, Karlsruhe), 10% fetal bovine serum (PAN Biotech Aidenbach) supplemented with 50 μg/ml penicillin/streptomycin (Gibco, Karlsruhe), 2 mM L-glutamine (PAN Biotech, Aidenbach), 400 μg/ml G418 (AppliChem, Darmstadt) and 0.3 μg/ml tetracycline. Cells were subcultured once a week in a 1:5 ratio, but were usually not passaged more than ten times. For the assay 60,000 cells were seeded in maintenance medium without any tetracycline into each well of a 96-well plate and treated with serial half-log dilutions of test compound. To minimize edge effects the outer 36 wells of the plate were not used but were filled with assay medium. On each assay plate six wells for the virus control (untreated HepAD38 cells) and six wells for the cell control (HepAD38 cells treated with 0.3 μg/ml tetracycline) were allocated, respectively. In addition, one plate set with reference inhibitors like BAY 41-4109, entecavir, and lamivudine instead of screening compounds were prepared in each experiment. In general, experiments were performed thrice in triplicates. At day 6 HBV DNA from 100 μl filtrated cell culture supernatant (AcroPrep Advance 96 Filter Plate, […] Supor membran, PALL GmbH, Dreieich) was automatically purified on the MagNa Pure LC instrument using the MagNA Pure 96 DNA and Viral NA Small Volume Kit (Roche Diagnostics, Mannheim) according to the instructions of the manufacturer. EC50 values were calculated from relative copy numbers of HBV DNA In brief, 5 μl of the 100 μl eluate containing HBV DNA were subjected to PCR LC480 Probes Master Kit (Roche) together with 1 μM antisense primer […], 0.5 μM sense primer […], 0.3 μM hybprobes […]-FL and LC640-[…]-PH (TIBMolBiol, Berlin) to a final volume of […]. The PCR was performed on the Light Cycler 480 real time system (Roche Diagnostics, Mannheim) using the following protocol: Pre-incubation for 1 min at 95° C., amplification: 40 cycles×(10 sec at 95° C., 50 sec at 60° C., 1 sec at 70° C.), cooling for 10 sec at 40° C. Viral load was quantitated against known standards using HBV plasmid DNA of pCH-9/3091 (Nassal et al., 1990, Cell 63: 1357-1363) and the LightCycler 480 SW 1.5 software (Roche Diagnostics, Mannheim) and EC50 values were calculated using non-linear regression with GraphPad Prism 6 (GraphPad Software Inc., La Jolla, USA).
(In general: Real-time PCR tracks product formation cycle by cycle.)

Each structure is given as a SMILES string. Where only a bound is given, the exact number is not on record here.

T1 sequence (P03147 1-150, looked up, stated change not applied): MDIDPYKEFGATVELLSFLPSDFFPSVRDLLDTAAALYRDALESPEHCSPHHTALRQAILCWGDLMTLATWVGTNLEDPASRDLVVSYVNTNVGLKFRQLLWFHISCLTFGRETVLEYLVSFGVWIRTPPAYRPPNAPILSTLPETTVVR

For `CC1Cc2[nH]nc(-c3cscn3)c2CN1C(=O)c1cc2cc(Cl)ccn2c1` (centres unmarked) [Example 19, 7-chloro-2-[6-methyl-3-(1,3-thiazol-4-yl)-1H,4H,5H,6H,7H-pyrazolo[4,3-c]pyridine-5-carbonyl]indolizine], the IC50 in experiment [1] was in the range of 5 to 10 µM. Moreover, in experiment [2], the EC50 was less than 1 µM.
On the same counts, the results for `CC1Cc2[nH]nc(-c3cscn3)c2CN1C(=O)c1cc2cccc(Cl)n2c1` (centres unmarked) [Example 20, 5-chloro-2-[6-methyl-3-(1,3-thiazol-4-yl)-1H,4H,5H,6H,7H-pyrazolo[4,3-c]pyridine-5-carbonyl]indolizine] are 5 to 10 µM and less than 1 µM.
On the same counts, the results for `CC1Cc2[nH]nc(-c3cscn3)c2CN1C(=O)c1cc2ccc(Cl)cn2c1` (centres unmarked) [Example 21, 6-chloro-2-[6-methyl-3-(1,3-thiazol-4-yl)-1H,4H,5H,6H,7H-pyrazolo[4,3-c]pyridine-5-carbonyl]indolizine] are 5 to 10 µM and less than 1 µM.
On the same counts, the results for `CC1Cc2[nH]nc(-c3cscn3)c2CN1C(=O)c1cc2cc(Cl)c(F)cn2c1` (centres unmarked) [Example 22, 7-chloro-6-fluoro-2-[6-methyl-3-(1,3-thiazol-4-yl)-1H,4H,5H,6H,7H-pyrazolo[4,3-c]pyridine-5-carbonyl]indolizine] are 5 to 10 µM and less than 1 µM.
Regarding `CC1Cc2[nH]nc(-c3cscn3)c2CN1C(=O)c1cc2ccc(F)cn2c1` (centres unmarked) [Example 23, 6-fluoro-2-[6-methyl-3-(1,3-thiazol-4-yl)-1H,4H,5H,6H,7H-pyrazolo[4,3-c]pyridine-5-carbonyl]indolizine], the IC50 in experiment [1] was less than 5 µM. The EC50 in experiment [2] is less than 1 µM.
On the same counts, the results for `CC1Cc2[nH]nc(-c3cscn3)c2CN1C(=O)c1cc2c(F)cccn2c1` (centres unmarked) [Example 24, 8-fluoro-2-[6-methyl-3-(1,3-thiazol-4-yl)-1H,4H,5H,6H,7H-pyrazolo[4,3-c]pyridine-5-carbonyl]indolizine] are less than 5 µM and less than 1 µM.
The like results for `CC1Cc2[nH]nc(-c3cscn3)c2CN1C(=O)c1cc2c(C(F)(F)F)cccn2c1` (centres unmarked) [Example 25, 2-[6-methyl-3-(1,3-thiazol-4-yl)-1H,4H,5H,6H,7H-pyrazolo[4,3-c]pyridine-5-carbonyl]-8-(trifluoromethyl)indolizine] were, in that order, 5 to 10 µM and less than 1 µM.
On the same counts, the results for `CC1Cc2[nH]nc(-c3cscn3)c2CN1C(=O)c1cc2ccccn2c1` (centres unmarked) [Example 26, 2-[6-methyl-3-(1,3-thiazol-4-yl)-1H,4H,5H,6H,7H-pyrazolo[4,3-c]pyridine-5-carbonyl]indolizine] are less than 5 µM and less than 1 µM.
For the compound `CC(NC(=O)c1noc2c1CN(C(=O)c1cc3ccccn3c1)CC2)C(F)(F)F` (centres unmarked) [Example 51, 5-(indolizine-2-carbonyl)-N-(1,1,1-trifluoropropan-2-yl)-4H,5H,6H,7H-[1,2]oxazolo[4,5-c]pyridine-3-carboxamide], the IC50 in experiment [1] was less than 5 µM. The EC50 in experiment [2] is less than 1 µM.
On the same counts, the results for `CC(NC(=O)c1onc2c1CN(C(=O)c1cc3ccccn3c1)CC2)C(F)(F)F` (centres unmarked) [Example 53, 5-(indolizine-2-carbonyl)-N-(1,1,1-trifluoropropan-2-yl)-4H,5H,6H,7H-[1,2]oxazolo[4,3-c]pyridine-3-carboxamide] are less than 5 µM and less than 1 µM.

For the origin of these results see patent publication US20220227789A1, “NOVEL INDOLIZINE-2-CARBOXAMIDES ACTIVE AGAINST THE HEPATITIS B VIRUS (HBV)” (AiCuris GmbH & Co. KG, priority 2019, published 2022).
